Measurements from ChEMBL document CHEMBL3991601, “The target landscape of clinical kinase drugs” (Science, 2017).
Calls of active or inactive are those of the source.

Legend:
[1] = target: Dual specificity protein kinase CLK1 (Homo sapiens, UniProt P49759)
[2] = target: Tyrosine-protein kinase Lck (Homo sapiens, UniProt P06239)
[3] = target: Dual specificity testis-specific protein kinase 1 (Homo sapiens, UniProt Q15569)
[4] = target: Mitogen-activated protein kinase 14 (Homo sapiens, UniProt Q16539)
[5] = target: T1, Peroxisomal acyl-coenzyme A oxidase 1 (Homo sapiens, UniProt Q15067)
T1 sequence (Q15067 whole entry): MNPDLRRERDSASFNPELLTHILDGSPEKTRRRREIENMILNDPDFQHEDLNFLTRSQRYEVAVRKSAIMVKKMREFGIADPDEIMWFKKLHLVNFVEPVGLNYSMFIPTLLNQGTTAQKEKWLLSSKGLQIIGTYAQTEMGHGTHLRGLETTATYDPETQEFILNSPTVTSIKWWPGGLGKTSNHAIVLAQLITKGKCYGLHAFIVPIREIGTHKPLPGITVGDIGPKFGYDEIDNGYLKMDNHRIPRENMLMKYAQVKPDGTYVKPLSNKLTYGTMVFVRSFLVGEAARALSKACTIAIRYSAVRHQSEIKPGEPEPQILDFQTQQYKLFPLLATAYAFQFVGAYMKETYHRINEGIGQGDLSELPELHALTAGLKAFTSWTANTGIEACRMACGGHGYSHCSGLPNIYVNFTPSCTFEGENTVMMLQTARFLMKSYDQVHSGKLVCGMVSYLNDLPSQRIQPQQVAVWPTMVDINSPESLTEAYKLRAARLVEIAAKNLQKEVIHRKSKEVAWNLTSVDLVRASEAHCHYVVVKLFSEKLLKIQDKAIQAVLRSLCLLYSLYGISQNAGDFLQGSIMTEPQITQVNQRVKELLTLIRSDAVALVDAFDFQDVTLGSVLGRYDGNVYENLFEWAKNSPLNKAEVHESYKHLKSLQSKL

[6] = target: T2, Dual specificity mitogen-activated protein kinase kinase 5 (Homo sapiens, UniProt Q13163)
T2 sequence (Q13163 whole entry): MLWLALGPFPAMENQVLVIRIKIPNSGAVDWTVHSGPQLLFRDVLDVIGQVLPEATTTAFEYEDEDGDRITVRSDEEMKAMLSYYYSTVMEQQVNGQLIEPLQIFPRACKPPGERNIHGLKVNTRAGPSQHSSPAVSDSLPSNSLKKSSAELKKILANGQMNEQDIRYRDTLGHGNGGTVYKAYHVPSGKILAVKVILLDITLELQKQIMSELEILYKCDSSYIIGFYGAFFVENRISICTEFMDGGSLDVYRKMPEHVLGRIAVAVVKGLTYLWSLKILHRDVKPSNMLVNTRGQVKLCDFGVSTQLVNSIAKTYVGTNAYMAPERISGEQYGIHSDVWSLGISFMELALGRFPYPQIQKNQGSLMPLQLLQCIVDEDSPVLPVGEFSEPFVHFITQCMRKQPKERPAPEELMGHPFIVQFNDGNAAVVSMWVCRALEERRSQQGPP

[7] = target: G protein-coupled receptor kinase 6 (Homo sapiens, UniProt P43250)
[8] = target: Dual specificity protein kinase CLK2 (Homo sapiens, UniProt P49760)
[9] = target: T3, Calcium/calmodulin-dependent protein kinase type IV (Homo sapiens, UniProt Q16566)
T3 sequence (Q16566 whole entry): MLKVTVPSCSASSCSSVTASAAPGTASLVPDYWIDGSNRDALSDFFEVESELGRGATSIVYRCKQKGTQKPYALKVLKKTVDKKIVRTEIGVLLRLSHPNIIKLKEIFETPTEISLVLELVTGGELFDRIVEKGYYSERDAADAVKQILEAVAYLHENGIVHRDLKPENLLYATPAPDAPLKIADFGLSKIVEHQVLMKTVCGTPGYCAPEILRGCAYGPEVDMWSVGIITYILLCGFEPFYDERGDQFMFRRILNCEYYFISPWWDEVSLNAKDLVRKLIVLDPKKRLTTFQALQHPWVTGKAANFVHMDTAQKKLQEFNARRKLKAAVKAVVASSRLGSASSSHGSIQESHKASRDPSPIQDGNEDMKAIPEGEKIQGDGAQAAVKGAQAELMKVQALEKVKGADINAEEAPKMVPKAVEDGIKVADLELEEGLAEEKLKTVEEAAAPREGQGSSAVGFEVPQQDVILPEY

[10] = target: T4, Serine/threonine-protein kinase NLK (Homo sapiens, UniProt Q9UBE8)
T4 sequence (Q9UBE8 whole entry): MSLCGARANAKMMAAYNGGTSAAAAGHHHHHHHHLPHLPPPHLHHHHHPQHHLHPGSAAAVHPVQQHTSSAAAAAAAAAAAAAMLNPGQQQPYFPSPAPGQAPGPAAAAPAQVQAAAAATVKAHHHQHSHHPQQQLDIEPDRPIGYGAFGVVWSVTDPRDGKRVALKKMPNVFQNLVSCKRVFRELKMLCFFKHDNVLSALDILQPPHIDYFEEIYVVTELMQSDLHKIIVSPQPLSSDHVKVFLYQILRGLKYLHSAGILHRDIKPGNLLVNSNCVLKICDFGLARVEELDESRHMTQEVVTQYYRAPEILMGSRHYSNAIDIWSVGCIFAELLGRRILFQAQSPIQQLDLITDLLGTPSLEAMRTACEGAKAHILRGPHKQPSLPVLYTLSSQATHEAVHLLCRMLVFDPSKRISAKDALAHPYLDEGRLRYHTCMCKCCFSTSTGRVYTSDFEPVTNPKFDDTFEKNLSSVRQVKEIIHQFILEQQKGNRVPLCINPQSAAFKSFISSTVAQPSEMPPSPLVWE

[11] = target: Dual specificity testis-specific protein kinase 2 (Homo sapiens, UniProt Q96S53)
[12] = target: Protein kinase C theta type (Homo sapiens, UniProt Q04759)
[13] = target: Focal adhesion kinase 1 (Homo sapiens, UniProt Q05397)
[14] = target: Myosin-10 (Homo sapiens, UniProt P35580)
[15] = target: Uncharacterized aarF domain-containing protein kinase 5 (Homo sapiens, UniProt Q3MIX3)
Note: in the data inactive means no Kd found up to 30 µM.

Focal adhesion kinase 1, sequence (Q05397 whole entry): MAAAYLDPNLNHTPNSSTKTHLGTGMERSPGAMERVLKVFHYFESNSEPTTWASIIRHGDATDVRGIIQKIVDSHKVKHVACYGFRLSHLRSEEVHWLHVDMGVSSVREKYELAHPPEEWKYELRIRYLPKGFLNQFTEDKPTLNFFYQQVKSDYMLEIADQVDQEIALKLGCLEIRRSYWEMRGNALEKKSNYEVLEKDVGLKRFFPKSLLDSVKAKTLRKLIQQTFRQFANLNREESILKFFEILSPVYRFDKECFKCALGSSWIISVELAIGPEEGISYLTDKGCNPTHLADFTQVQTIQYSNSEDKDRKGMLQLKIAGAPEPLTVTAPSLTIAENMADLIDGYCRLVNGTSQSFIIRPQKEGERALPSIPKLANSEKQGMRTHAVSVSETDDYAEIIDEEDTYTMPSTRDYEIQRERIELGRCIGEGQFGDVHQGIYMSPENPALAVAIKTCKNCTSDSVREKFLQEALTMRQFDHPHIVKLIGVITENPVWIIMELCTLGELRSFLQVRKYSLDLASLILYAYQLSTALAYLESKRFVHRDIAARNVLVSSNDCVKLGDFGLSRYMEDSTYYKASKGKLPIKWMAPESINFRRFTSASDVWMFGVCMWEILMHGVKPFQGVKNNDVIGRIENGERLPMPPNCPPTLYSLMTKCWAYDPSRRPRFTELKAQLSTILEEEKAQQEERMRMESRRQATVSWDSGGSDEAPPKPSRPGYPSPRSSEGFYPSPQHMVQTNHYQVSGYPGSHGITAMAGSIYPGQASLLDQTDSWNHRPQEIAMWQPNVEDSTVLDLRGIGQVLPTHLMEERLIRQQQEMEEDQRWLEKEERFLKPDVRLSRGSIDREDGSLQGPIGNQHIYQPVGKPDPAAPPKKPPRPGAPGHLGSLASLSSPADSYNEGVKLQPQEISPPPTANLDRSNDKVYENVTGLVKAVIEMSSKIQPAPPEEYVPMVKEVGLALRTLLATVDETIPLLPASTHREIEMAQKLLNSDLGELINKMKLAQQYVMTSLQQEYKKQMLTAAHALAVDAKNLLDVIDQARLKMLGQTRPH
Tyrosine-protein kinase Lck, sequence (P06239 whole entry): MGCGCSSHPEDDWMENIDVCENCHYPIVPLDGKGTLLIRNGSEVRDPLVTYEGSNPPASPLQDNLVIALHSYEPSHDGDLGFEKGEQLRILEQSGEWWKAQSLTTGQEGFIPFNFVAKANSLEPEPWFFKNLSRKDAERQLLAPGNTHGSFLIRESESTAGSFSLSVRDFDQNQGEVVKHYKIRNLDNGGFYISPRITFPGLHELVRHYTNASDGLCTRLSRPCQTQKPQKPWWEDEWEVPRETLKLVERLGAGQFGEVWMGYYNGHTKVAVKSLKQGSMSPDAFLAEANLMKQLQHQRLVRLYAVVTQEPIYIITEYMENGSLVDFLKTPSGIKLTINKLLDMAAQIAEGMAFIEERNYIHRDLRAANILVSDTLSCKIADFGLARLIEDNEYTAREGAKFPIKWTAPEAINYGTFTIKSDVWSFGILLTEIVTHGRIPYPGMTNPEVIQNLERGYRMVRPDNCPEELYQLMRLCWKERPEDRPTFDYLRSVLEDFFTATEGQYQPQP
Dual specificity testis-specific protein kinase 2, sequence (Q96S53 whole entry): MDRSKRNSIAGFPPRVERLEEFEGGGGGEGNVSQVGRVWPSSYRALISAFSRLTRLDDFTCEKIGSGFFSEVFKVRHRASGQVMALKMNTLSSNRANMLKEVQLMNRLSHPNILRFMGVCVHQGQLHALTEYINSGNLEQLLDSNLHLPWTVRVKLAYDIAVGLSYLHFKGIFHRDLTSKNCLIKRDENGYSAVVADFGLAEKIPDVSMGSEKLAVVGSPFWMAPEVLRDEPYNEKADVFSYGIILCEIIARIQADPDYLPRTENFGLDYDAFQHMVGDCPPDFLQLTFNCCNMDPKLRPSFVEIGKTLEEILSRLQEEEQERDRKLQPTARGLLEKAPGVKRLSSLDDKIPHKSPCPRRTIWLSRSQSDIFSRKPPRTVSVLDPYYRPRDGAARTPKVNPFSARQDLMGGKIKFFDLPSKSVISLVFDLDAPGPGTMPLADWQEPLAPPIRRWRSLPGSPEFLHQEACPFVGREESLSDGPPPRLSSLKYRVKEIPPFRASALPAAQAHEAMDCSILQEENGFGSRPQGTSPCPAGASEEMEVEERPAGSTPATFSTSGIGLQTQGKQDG
Myosin-10, sequence (P35580 whole entry, the tested form may be a part): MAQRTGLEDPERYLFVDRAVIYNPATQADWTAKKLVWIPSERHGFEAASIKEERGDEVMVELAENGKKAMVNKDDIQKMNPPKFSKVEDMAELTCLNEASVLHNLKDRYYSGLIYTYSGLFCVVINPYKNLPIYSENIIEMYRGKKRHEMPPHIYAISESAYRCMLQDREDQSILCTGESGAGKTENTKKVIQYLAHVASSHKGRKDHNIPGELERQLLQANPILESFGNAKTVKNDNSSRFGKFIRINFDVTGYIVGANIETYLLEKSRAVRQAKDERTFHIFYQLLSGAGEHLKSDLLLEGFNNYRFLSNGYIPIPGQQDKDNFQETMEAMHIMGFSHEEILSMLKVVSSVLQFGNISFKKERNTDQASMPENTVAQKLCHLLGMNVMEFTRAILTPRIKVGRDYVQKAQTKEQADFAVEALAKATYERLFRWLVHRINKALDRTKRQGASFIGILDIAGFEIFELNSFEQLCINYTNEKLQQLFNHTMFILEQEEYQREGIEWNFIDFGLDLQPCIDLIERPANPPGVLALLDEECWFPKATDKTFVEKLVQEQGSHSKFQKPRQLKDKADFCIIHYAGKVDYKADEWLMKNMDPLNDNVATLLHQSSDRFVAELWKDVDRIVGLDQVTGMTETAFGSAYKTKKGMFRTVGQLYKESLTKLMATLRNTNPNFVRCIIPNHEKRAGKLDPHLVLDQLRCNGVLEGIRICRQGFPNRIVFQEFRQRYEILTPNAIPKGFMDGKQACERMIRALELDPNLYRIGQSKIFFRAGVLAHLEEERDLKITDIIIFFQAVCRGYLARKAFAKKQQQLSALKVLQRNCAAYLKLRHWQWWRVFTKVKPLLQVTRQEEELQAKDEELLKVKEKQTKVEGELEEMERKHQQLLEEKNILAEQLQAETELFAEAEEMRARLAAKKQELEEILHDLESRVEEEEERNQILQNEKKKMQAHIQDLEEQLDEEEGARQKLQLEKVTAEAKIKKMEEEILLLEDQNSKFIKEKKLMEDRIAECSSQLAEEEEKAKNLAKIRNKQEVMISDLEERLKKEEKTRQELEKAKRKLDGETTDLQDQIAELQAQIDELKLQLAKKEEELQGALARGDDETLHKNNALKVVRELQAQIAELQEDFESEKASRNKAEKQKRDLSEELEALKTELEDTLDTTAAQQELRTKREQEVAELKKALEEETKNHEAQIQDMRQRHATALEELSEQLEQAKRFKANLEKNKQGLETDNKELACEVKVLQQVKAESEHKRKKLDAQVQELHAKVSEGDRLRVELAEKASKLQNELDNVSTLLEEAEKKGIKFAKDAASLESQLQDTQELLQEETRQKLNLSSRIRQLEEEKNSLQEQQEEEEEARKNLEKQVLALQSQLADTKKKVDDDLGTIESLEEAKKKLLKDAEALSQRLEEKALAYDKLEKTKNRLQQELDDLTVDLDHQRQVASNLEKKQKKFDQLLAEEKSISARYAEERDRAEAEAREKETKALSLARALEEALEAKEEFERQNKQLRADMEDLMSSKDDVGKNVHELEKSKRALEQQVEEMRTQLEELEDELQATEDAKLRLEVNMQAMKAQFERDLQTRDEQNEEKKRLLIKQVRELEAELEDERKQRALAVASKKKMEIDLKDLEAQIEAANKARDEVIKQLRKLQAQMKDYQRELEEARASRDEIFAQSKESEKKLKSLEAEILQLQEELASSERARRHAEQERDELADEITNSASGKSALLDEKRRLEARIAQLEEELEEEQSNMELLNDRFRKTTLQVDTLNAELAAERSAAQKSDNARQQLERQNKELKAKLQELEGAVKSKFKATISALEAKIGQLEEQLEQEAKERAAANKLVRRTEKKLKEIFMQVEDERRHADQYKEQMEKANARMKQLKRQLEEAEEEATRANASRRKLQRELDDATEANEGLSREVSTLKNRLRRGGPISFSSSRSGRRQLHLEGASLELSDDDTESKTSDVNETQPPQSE
Dual specificity testis-specific protein kinase 1, sequence (Q15569 whole entry): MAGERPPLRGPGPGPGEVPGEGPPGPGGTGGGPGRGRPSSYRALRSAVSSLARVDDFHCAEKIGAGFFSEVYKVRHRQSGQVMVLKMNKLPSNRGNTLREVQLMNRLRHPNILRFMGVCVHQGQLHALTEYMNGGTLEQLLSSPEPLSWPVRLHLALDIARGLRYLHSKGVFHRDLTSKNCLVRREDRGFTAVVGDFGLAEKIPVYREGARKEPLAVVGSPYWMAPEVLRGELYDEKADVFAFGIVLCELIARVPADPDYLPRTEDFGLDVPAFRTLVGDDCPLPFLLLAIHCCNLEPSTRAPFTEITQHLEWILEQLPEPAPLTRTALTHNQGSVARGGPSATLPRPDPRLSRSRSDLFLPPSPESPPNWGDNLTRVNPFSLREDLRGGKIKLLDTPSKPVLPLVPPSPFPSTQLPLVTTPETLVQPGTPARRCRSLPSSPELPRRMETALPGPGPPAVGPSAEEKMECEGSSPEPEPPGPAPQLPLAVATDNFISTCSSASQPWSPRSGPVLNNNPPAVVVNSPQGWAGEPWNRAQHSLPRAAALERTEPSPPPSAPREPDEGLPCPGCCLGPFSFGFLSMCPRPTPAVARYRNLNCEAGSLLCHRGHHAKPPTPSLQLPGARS
Mitogen-activated protein kinase 14, sequence (Q16539 whole entry): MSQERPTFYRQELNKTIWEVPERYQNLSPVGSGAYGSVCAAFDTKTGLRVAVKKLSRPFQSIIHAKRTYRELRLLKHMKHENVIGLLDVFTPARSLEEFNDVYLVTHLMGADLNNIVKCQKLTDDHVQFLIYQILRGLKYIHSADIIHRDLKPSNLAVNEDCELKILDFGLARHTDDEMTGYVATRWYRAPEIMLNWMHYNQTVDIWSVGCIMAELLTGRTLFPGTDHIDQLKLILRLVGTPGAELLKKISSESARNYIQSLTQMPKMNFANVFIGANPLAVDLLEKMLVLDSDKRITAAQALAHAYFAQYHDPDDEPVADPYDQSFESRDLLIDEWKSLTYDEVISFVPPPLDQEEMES

Kd [1]	Kd [2]	Kd [3]	Kd [4]	Kd [5]	Kd [6]	Kd [7]	Kd [9]	Kd [10]	Kd [11]	Kd [12]	Kd [13]	Kd [14]	Kd [15]	SMILES	Kd [8]
> 30 µM (inactive)	> 30 µM (inactive)	> 30 µM (inactive)	> 30 µM (inactive)	> 30 µM (inactive)	> 30 µM (inactive)	> 30 µM (inactive)	> 30 µM (inactive)	> 30 µM (inactive)	> 30 µM (inactive)	> 30 µM (inactive)	> 30 µM (inactive)			CNC(=O)c1cc(COc2nnc(Nc3ccc(Cl)cc3)c3ccoc23)ccn1 [TELATINIB]	> 30 µM (inactive)
				> 30 µM (inactive)		> 30 µM (inactive)			> 30 µM (inactive)			> 30 µM (inactive)		COc1cc2c(N3CCN(C(=O)Nc4ccc(OC(C)C)cc4)CC3)ncnc2cc1OCCCN1CCCCC1 [TANDUTINIB]	
0.651 µM (active)	> 30 µM (inactive)	> 30 µM (inactive)	> 30 µM (inactive)	> 30 µM (inactive)	> 30 µM (inactive)		> 30 µM (inactive)	> 30 µM (inactive)			0.433 µM (active)	> 30 µM (inactive)	> 30 µM (inactive)	C=CC(=O)Nc1cccc(Nc2nc(Nc3ccc(N4CCN(C(C)=O)CC4)cc3OC)ncc2C(F)(F)F)c1 [ROCILETINIB]	> 30 µM (inactive)
	> 30 µM (inactive)			> 30 µM (inactive)	> 30 µM (inactive)		> 30 µM (inactive)	> 30 µM (inactive)		> 30 µM (inactive)	> 30 µM (inactive)			O=c1[nH]c([C@@H]2CCCN2)nc2c1oc1ccc(Cl)cc12	
> 30 µM (inactive)	> 30 µM (inactive)	> 30 µM (inactive)	> 30 µM (inactive)	> 30 µM (inactive)	> 30 µM (inactive)		> 30 µM (inactive)	> 30 µM (inactive)			> 30 µM (inactive)	> 30 µM (inactive)		CC[C@@](C)(Nc1ccnc(-c2c[nH]c3ncccc23)n1)C(=O)NCC(F)(F)F [DECERNOTINIB]	
				> 30 µM (inactive)					> 30 µM (inactive)			> 30 µM (inactive)		Cn1cnc2c(F)c(Nc3ccc(Br)cc3Cl)c(C(=O)NOCCO)cc21 [SELUMETINIB]	
> 30 µM (inactive)		> 30 µM (inactive)	> 30 µM (inactive)	> 30 µM (inactive)			> 30 µM (inactive)	0.816 µM		> 30 µM (inactive)	> 30 µM (inactive)			CC(C)(O)CC(=O)NCCn1ccc2ncnc(Nc3ccc(Oc4cccc(C(F)(F)F)c4)c(Cl)c3)c21 [TAK-285]	
> 30 µM (inactive)	0.514 µM (active)	> 30 µM (inactive)	> 30 µM (inactive)	> 30 µM (inactive)	0.972 µM (active)		> 30 µM (inactive)	> 30 µM (inactive)	> 30 µM (inactive)	> 30 µM (inactive)	> 30 µM (inactive)			COc1cccc(Nc2ncnn3ccc(CN4CC[C@@H](N)[C@H](O)C4)c23)c1 [BMS-690514]	
> 30 µM (inactive)	> 30 µM (inactive)	> 30 µM (inactive)	> 30 µM (inactive)	> 30 µM (inactive)	> 30 µM (inactive)		> 30 µM (inactive)	> 30 µM (inactive)	> 30 µM (inactive)	> 30 µM (inactive)	> 30 µM (inactive)	> 30 µM (inactive)		COc1cc2ncnc(Nc3ccc(O)cc3)c2cc1OC [WHI-P131]	> 30 µM (inactive)
			> 30 µM (inactive)		2.08 µM (active)		> 30 µM (inactive)	> 30 µM (inactive)		> 30 µM (inactive)		> 30 µM (inactive)		CCOc1ccn(-c2ccc(F)cc2)c(=O)c1C(=O)Nc1ccc(Oc2ccnc(N)c2Cl)c(F)c1 [BMS-777607]	

SMILES	Kd [1]	Kd [2]	Kd [3]	Kd [4]	Kd [5]	Kd [6]	Kd [7]	Kd [9]	Kd [10]	Kd [11]	Kd [12]	Kd [13]	Kd [14]	Kd [15]	Kd [8]
N#CCNC(=O)c1ccc(-c2ccnc(Nc3ccc(N4CCOCC4)cc3)n2)cc1 [MOMELOTINIB]	0.918 µM			> 30 µM (inactive)		> 30 µM (inactive)		> 30 µM (inactive)	> 30 µM (inactive)						> 30 µM (inactive)
COc1cc(F)c(F)c(Nc2ccc(I)cc2F)c1NS(=O)(=O)C1(C[C@H](O)CO)CC1 [REFAMETINIB]	> 30 µM (inactive)	> 30 µM (inactive)	> 30 µM (inactive)	> 30 µM (inactive)		> 30 µM (inactive)	> 30 µM (inactive)	> 30 µM (inactive)	> 30 µM (inactive)		> 30 µM (inactive)	> 30 µM (inactive)			> 30 µM (inactive)
Cc1c(NC(=O)OC[C@@H]2COCCN2)cn2ncnc(Nc3ccc4c(cnn4Cc4cccc(F)c4)c3)c12 [AC-480]	> 30 µM (inactive)	> 30 µM (inactive)	> 30 µM (inactive)	> 30 µM (inactive)	> 30 µM (inactive)	5.93 µM		> 30 µM (inactive)	> 30 µM (inactive)		> 30 µM (inactive)	> 30 µM (inactive)	> 30 µM (inactive)		
NC[C@@](O)(c1ccc(Cl)cc1)c1ccc(-c2cn[nH]c2)cc1 [AT-13148]		> 30 µM (inactive)		> 30 µM (inactive)	> 30 µM (inactive)	> 30 µM (inactive)		> 30 µM (inactive)	> 30 µM (inactive)		> 30 µM (inactive)	> 30 µM (inactive)	> 30 µM (inactive)		> 30 µM (inactive)
C=CCN(/C=C1/C(=O)O[C@H](COC)[C@@]2(C)C1=C(O)C(=O)C1=C2[C@H](OC(C)=O)C[C@]2(C)C(=O)CC[C@@H]12)CC=C [SONOLISIB]	> 30 µM (inactive)	> 30 µM (inactive)	> 30 µM (inactive)	> 30 µM (inactive)		> 30 µM (inactive)		> 30 µM (inactive)	> 30 µM (inactive)			> 30 µM (inactive)	> 30 µM (inactive)		
CCc1nc(C(N)=O)c(Nc2ccc(N3CCC(N4CCN(C)CC4)CC3)c(OC)c2)nc1NC1CCOCC1 [GILTERITINIB]		> 30 µM (inactive)	> 30 µM (inactive)	> 30 µM (inactive)		2.04 µM (active)		0.421 µM (active)	> 30 µM (inactive)			> 30 µM (inactive)			
